Assay results as given in patent US9115092B2, “Substituted quinazoline and pyrido-pyrimidine derivatives” (Asana Biosciences, LLC, priority 2010, dated 2015).

Assays:
mTOR kinase = biological target: T1, mTOR kinase (Homo sapiens, UniProt P42345); experiment: mTOR kinase TR-FRET assay; assay type: biochemical; settings: read-out: mTO R
T1 construct: purchased Millipore, USA
In short: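 TR-FRET read-out (340 nm excitation, 615/665 nm emission) of Thr389 phosphorylation of a ULight-labeled p70 S6K peptide (50 nM) by mTOR, 20 μM ATP, 60 min room temperature after 60 min compound preincubation. Buffer HEPES pH 7.5 with MnCl2, EGTA; IC50 by sigmoidal dose-response.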

[1] = biological target: T2, PI3Kα (wild-type), P110/P85α (Homo sapiens, UniProt P42336); experiment: PI3 Kinase TR-FRET assay, PI3Kα (wild-type); assay type: biochemical
T2 construct: made in house; host or cells: SF9 insect cells
In short: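 TR-FRET read-out of PIP3 formation via biotin-PIP3 displacement (665/615 nm ratio) gave IC50 curves. Enzyme: 5 ng wild-type P110/P85α from Sf9 cells, 60 min RT with compound and PIP2 (MgCl2 40 mM, DTT 5 mM), then 30 min RT kinase reaction at 10 μM ATP and 10 μM PIP2.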

PC3 cells = experiment: XTT assay for cell viability, PC3 cells; assay type: cell-based, human; settings: Homo sapiens, PC-3, cell viability
Protocol: Using a commercial kit from Sigma Aldrich (Catalog #X34251) and following its protocol, PC3 cells in the log phase of growth were employed and seeded at an optimal density of 1000 cell/well on to 96 well plates and incubated for 24 h followed by the addition of compounds of formula (I) in serial dilutions. Compound dilutions were made in DMSO. The cells were incubated with the compounds of formula (I) for 96 h and XTT tetrazolium dye (Sigma, USA) was subsequently added and incubated at 37° C. After the color formation, absorbance was measured at 465 nm in a Spectramax® Gemini spectrophotometer. EC50 values were calculated using a sigmoidal dose response curve fit in GraphPad Prism® v5 software. The tested compounds of formula (I) which caused inhibition of PC3 cell proliferation as determined by this assay protocol are shown in Table 2.

T2 sequence (P42336 whole entry): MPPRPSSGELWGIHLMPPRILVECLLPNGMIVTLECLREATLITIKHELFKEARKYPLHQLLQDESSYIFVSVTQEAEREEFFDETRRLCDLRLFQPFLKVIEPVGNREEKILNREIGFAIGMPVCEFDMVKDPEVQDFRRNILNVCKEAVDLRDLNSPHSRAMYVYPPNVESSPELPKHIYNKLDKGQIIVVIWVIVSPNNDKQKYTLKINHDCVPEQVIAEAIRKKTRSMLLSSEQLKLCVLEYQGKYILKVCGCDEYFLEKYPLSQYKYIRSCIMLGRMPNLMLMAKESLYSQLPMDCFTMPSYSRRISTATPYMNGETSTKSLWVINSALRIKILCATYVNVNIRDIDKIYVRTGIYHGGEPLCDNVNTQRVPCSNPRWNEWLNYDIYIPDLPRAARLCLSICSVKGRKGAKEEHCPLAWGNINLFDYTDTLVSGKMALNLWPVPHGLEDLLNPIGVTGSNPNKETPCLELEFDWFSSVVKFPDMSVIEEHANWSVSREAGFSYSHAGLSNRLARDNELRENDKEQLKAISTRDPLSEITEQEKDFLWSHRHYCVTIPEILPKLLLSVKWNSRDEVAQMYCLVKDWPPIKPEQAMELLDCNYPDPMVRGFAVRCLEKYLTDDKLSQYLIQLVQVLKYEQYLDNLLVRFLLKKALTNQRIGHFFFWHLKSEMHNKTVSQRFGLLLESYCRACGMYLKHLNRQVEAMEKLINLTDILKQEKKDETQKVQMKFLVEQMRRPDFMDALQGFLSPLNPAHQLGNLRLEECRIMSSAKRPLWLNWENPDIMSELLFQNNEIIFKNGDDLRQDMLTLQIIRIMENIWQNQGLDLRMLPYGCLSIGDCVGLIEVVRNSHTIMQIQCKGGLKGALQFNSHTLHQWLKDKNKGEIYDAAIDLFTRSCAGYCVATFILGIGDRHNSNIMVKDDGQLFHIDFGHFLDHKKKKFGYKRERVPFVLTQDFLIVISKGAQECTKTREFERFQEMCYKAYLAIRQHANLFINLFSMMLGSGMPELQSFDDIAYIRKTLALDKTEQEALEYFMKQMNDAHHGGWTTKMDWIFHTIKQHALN
T2 sequence (P27986 whole entry partner): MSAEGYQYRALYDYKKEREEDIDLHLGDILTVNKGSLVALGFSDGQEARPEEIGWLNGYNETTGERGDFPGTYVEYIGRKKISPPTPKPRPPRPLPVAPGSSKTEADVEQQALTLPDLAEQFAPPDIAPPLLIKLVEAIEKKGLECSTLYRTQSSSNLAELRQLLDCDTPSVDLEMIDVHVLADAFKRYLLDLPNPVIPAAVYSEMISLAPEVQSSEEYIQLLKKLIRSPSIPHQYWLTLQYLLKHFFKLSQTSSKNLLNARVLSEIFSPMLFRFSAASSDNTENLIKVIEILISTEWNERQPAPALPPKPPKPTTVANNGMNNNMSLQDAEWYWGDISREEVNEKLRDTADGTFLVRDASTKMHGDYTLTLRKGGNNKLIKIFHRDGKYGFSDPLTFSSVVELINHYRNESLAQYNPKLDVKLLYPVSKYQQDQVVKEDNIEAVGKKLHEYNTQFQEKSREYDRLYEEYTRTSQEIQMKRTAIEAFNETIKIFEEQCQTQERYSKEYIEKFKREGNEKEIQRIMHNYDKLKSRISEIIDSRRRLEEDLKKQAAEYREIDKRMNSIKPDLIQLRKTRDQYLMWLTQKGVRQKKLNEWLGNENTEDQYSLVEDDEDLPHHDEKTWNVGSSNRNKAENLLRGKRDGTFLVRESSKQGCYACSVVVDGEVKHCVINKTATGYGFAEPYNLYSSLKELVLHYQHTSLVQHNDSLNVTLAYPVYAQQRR

| IC50 (mTOR kinase) | IC50 [1] | IC50 (PC3 cells) | Structure (SMILES) |
| --- | --- | --- | --- |
| < 50 nM | < 50 nM | < 100 nM | CN1CCN(C(=O)c2ccc(NC(=O)Nc3ccc(-c4nc(N5CCOCC5)c5ccc(-c6cccnc6F)cc5n4)cc3)cc2)CC1 [Example 26, 1-{4-[7-(2-fluoro-pyridin-3-yl)-4-morpholin-4-yl-quinazolin-2-yl]-phenyl}-3-[4-(4-methyl-piperazine-1-carbonyl)-phenyl]-urea] |
| < 50 nM | 50 to 200 nM | < 100 nM | CN1CCN(C(=O)c2ccc(NC(=O)Nc3ccc(-c4nc(N5CCOCC5)c5ccc(-c6cnn(C)c6)cc5n4)cc3)cc2)CC1 [Example 27, 1-[4-(4-methyl-piperazine-1-carbonyl)-phenyl]-3-{4-[7-(1-methyl-1H-pyrazol-4-yl)-4-morpholin-4-yl-quinazolin-2-yl]-phenyl}-urea] |
| < 50 nM | 50 to 200 nM | < 100 nM | CN(C)C(=O)c1ccc(NC(=O)Nc2ccc(-c3nc(N4CCOCC4)c4ccc(-c5cccnc5F)cc4n3)cc2)cn1 [Example 28, 5-(3-{4-[7-(2-fluoro-pyridin-3-yl)-4-morpholin-4-yl-quinazolin-2-yl]-phenyl}-ureido)-pyridine-2-carboxylic acid dimethylamide] |
| < 50 nM | < 50 nM | < 100 nM | CN(C)C(=O)c1ccc(NC(=O)Nc2ccc(-c3nc(N4CCOCC4)c4cc(F)c(-c5cccnc5)cc4n3)cc2)cc1 [Example 29, 4-{3-[4-(6-fluoro-4-morpholin-4-yl-7-pyridin-3-yl-quinazolin-2-yl)-phenyl]-ureido}-N,N-dimethyl-benzamide] |
| < 50 nM | < 50 nM | < 100 nM | CN(C)C(=O)c1ccc(NC(=O)Nc2ccc(-c3nc(N4CCOCC4)c4cc(F)c(-c5cncnc5)cc4n3)cc2)cc1 [Example 30, 4-{3-[4-(6-fluoro-4-morpholin-4-yl-7-pyrimidin-5-yl-quinazolin-2-yl)-phenyl]-ureido}-N,N-dimethyl-benzamide] |
| < 50 nM | 50 to 200 nM | 100 to 500 nM | CN(C)C(=O)c1ccc(NC(=O)Nc2ccc(-c3nc(N4CCOCC4)c4ccc(-c5cccc(S(C)(=O)=O)c5)cc4n3)cc2)cn1 [Example 31, 5-(3-{4-[7-(3-methanesulfonyl-phenyl)-4-morpholin-4-yl-quinazolin-2-yl]-phenyl}-ureido)-pyridine-2-carboxylic acid dimethylamide] |
| < 50 nM | < 50 nM | 501 to 5000 nM | CN1CCN(C(=O)c2ccc(NC(=O)Nc3ccc(-c4nc(N5CCOCC5)c5ccc(-c6cccc(S(C)(=O)=O)c6)cc5n4)cc3)cc2)CC1 [Example 32, 1-(4-(4-methylpiperazine-1-carbonyl)phenyl)-3-(4-(7-(3-(methylsulfonyl)phenyl)-4-morpholino-quinazolin-2-yl)phenyl)urea] |
| < 50 nM | < 50 nM | < 100 nM | CN(C)C(=O)c1ccc(NC(=O)Nc2ccc(-c3nc(N4CCOCC4)c4ccc(-c5cncc(S(C)(=O)=O)c5)cc4n3)cc2)cc1 [Example 34, 4-(3-{4-[7-(5-methanesulfonyl-pyridin-3-yl)-4-morpholin-4-yl-qinazolin-2-yl]-phenyl}-ureido)-N,N-dimethyl-benzamide] |
| < 50 nM | < 50 nM | < 100 nM | CN(C)C(=O)c1ccc(NC(=O)Nc2ccc(-c3nc(N4CCOCC4)c4cc(F)c(-c5cccc(S(C)(=O)=O)c5)cc4n3)cc2)cc1 [Example 36, 4-(3-{4-[6-fluoro-7-(3-methanesulfonyl-phenyl)-4-morpholin-4-yl-quinazolin-2-yl]-phenyl}-ureido)-N,N-dimethyl-benzamide] |
| 50 to 200 nM | 50 to 200 nM | 100 to 500 nM | CN1CCN(C(=O)c2ccc(NC(=O)Nc3ccc(-c4nc(N5CCOCC5)c5ccc(-c6ccsc6)cc5n4)cc3)cc2)CC1 [Example 37, 1-[4-(4-methyl-piperazine-1-carbonyl)-phenyl]-3-[4-(4-morpholin-4-yl-7-thiophen-3-yl-quinazolin-2-yl)-phenyl]-urea] |
| < 50 nM | < 50 nM | < 100 nM | CN(C)C(=O)c1ccc(NC(=O)Nc2ccc(-c3nc(N4CCOCC4)c4cc(F)c(-c5cncc(S(C)(=O)=O)c5)cc4n3)cc2)cc1 [Example 38, 4-(3-{4-[6-fluoro-7-(5-methanesulfonyl-pyridin-3-yl)-4-morpholin-4-yl-quinazolin-2-yl]-phenyl}-ureido)-N,N-dimethyl-benzamide] |
| < 50 nM | < 50 nM | < 100 nM | CN(C)C(=O)c1ccc(NC(=O)Nc2ccc(-c3nc(N4CCOCC4)c4ncc(-c5cccc(S(C)(=O)=O)c5)cc4n3)cc2)cc1 [Example 39, 4-(3-{4-[7-(3-methanesulfonyl-phenyl)-4-morpholin-4-yl-pyrido[3,2-d]pyrimidin-2-yl]-phenyl}-ureido)-N,N-dimethyl-benzamide] |
| < 50 nM | < 50 nM | 100 to 500 nM | Cc1ccc(-c2cnc3c(N4CCOCC4)nc(-c4ccc(NC(=O)Nc5ccc(C(=O)N(C)C)cc5)cc4)nc3c2)o1 [Example 43, N,N-dimethyl-4-(3-{4-[7-(5-methyl-furan-2-yl)-4-morpholin-4-yl-pyrido[3,2-d]pyrimidin-2-yl]-phenyl}-ureido)-benzamide] |
| < 50 nM | < 50 nM | < 100 nM | CN(C)C(=O)c1ccc(NC(=O)Nc2ccc(-c3nc(N4CCOCC4)c4ccc(-c5cccc(CO)c5)cc4n3)cc2)cc1 [Example 45, 4-(3-{4-[7-(3-hydroxymethyl-phenyl)-4-morpholin-4-yl-quinazolin-2-yl]-phenyl}-ureido)-N,N-dimethyl-benzamide] |
| 50 to 200 nM | < 50 nM | 100 to 500 nM | CN(C)C(=O)c1ccc(NC(=O)Nc2ccc(-c3nc(N4CCOCC4)c4ccc(-c5ccsc5)cc4n3)cc2)cc1 [Example 52, N,N-dimethyl-4-{3-[4-(4-morpholin-4-yl-7-thiophen-3-yl-quinazolin-2-yl)-phenyl]-ureido}-benzamide] |
| 50 to 200 nM | 50 to 200 nM | 100 to 500 nM | CN(C)C(=O)c1ccc(NC(=O)Nc2ccc(-c3nc(N4CCOCC4)c4ccc(-c5ccoc5)cc4n3)cc2)cc1 [Example 53, 4-{3-[4-(7-furan-3-yl-4-morpholin-4-yl-quinazolin-2-yl)-phenyl]-ureido}-N,N-dimethyl-benzamide] |
| < 50 nM | < 50 nM | 501 to 5000 nM | CN(C)C(=O)c1ccc(NC(=O)Nc2ccc(-c3nc(N4CCOCC4)c4ccc(-c5ccncc5)cc4n3)cc2)cc1 [Example 58, N,N-dimethyl-4-{3-[4-(4-morpholin-4-yl-7-pyridin-4-yl-quinazolin-2-yl)-phenyl]-ureido}-benzamide] |
| < 50 nM | < 50 nM | < 100 nM | CN(C)C(=O)c1ccc(NC(=O)Nc2ccc(-c3nc(N4CCOCC4)c4ccc(-c5cnc6ccccc6c5)cc4n3)cc2)cc1 [Example 59, N,N-dimethyl-4-{3-[4-(4-morpholin-4-yl-7-quinolin-3-yl-quinazolin-2-yl)-phenyl]-ureido}-benzamide] |
| < 50 nM | < 50 nM | 100 to 500 nM | COc1ccc(-c2ccc3c(N4CCOCC4)nc(-c4ccc(NC(=O)Nc5ccc(C(=O)N(C)C)cc5)cc4)nc3c2)cn1 [Example 60, 4-(3-{4-[7-(6-methoxy-pyridin-3-yl)-4-morpholin-4-yl-quinazolin-2-yl]-phenyl}-ureido)-N,N-dimethyl-benzamide] |
